Source: patent US20110045032A1 (priority 2001, published 2011)
Entries after “also recorded” stand apart in the source; their conditions may differ.

Legend:
Assay type in all cases: in vivo
[1] = test system: dust mite-sensitized rabbits; assay: Bronchial hyperresponsiveness to histamine (Example 27)
Experimental: This follow-up study compared the effects of DHEA-S and Puimicort® (budesonide inhalation suspension) on allergen-induced bronchial hyperresponsiveness (BHR) to histamine and pulmonary inflammation in dust mite-sensitized rabbits. The study included 18 animals divided into 3 treatment groups: saline, DHEA-S, and Puimicort. The animals were treated for once per day for 5 consecutive days via nebulization through a pediatric facemask covering the nose and mouth. Treatments were DHEA-S, 10 mg/day (5 mg/ml), Pulmicort Respules, 0.5 mg/day (0.5 mg/2 ml, note: this is the standard human dose) or saline (2 ml). A dust mite challenge was performed on day 4, and development of airway inflammation was assessed 6 hours and 30 hours after dust mite challenge. Histamine sensitivity was assessed 30 hours after challenge (day 5) and the lungs removed for histology.
There was an increase in the area under the curve of 17.42, which means the animals became more sensitive to histamine following allergen exposure. […] The resulting change in the area under the curve was −4.52 and −6.70 for DHEA-S and Puimicort, respectively, this means that animals treated with DHEA-S or Pulmicort were less sensitive to histamine following allergen exposure.

[2] = test system: dust mite-sensitized rabbits; assay: BALF cell counts, intratracheal powder (Example 25)
Experimental: This study defines the effect of 7 days of treatment with DHEA-S on allergen-induced bronchial hyperresponsiveness (BHR), early and late phase responses, and pulmonary inflammation in dust mite-sensitized rabbits. Baseline BHR and inflammation were first determined. The following week, allergen challenge, pulmonary function testing and BALF were performed on the untreated rabbits. Histamine sensitivity was determined 24 hours post allergen challenge. Rabbits were rested for 3 weeks then baseline values were re-established. The following week, DHEA-S (5 mg/day) was delivered once a day for 7 days via an intratracheal powder injector through the endrotracheal tube of the anesthetized rabbit. On day 8, 24 hrs after the last treatment, allergen challenge, pulmonary function testing and BALF were performed as previously. On day 9, 24 hrs after allergen challenge, a histamine challenge was performed. The drug was not micronized prior to use thus only a portion of the administered date was expected to reach the deep lung. The study includes 4 animals studied under a crossover design. The treatment with DHEA-S led to changes in the disease status of the animals that are described in the following paragraph.

[3] = test system: dust mite-sensitized rabbits; assay: Lung histology (Example 26); conditions: blinded veterinary pathologist, scale of 0 to 4; vs vehicle control
Experimental: This study defines the effect of 7 days of treatment with DHEA-S on allergen-induced bronchial hyperresponsiveness (BHR), early and late phase responses, and pulmonary inflammation in dust mite-sensitized rabbits. Baseline BHR and inflammation were first determined. DHEA-S (5 mg/ml, 2 ml nebulized) or an equivalent volume of vehicle was delivered once per day via nebulization through a pediatric facemask covering the nose and mouth on days 1 through 7. On day 8, 24 hours after the last treatment, allergen challenge, pulmonary function testing and BALF were performed. On day 9, 24 hours after allergen challenge a histamine challenge was performed and the lungs removed for histology. The study includes 5 animals studied under a crossover design. […]
Effects on interstitial inflammation were evaluated by histology. A veterinary pathologist evaluated hematoxylin and eosin stained sections in a blinded manner. Sections were scored for inflammatory parameters using a scale of 0 to 4 with 0 representing no finding and 4 representing severe. […] All of the following parameters were scored lower in the DHEA-S treated lungs compared to the vehicle control group: cuffing of the airways and blood vessels by inflammatory cells, bronchial-associated lymphoid tissue hyperplasia, and bronchitis/bronchiolitis. […]

SMILES: CC12CCC3C(CC=C4CC(OS(=O)(=O)[O-])CCC43C)C1CCC2=O.[Na+] (stereo not drawn) [DHEA-S, Dehydroepiandrosterone sulfate]
- change in the area under the histamine dose-response (resistance) curve [1]: −4.52
- histamine response curve ([1]; 30 hours after challenge): tended to shift the histamine response curve downward
- neutrophils in BALF ([2]; 15 minutes after dust mite challenge, control 10.2): 1.3 ×10^4 cells/ml
- macrophages in BALF ([2]; 15 minutes after dust mite challenge, control 29.6): 19.4 ×10^4 cells/ml
- neutrophils in BALF ([2]; 6 hours after challenge, control 43.8): 32.2 ×10^4 cells/ml
- eosinophils in BALF ([2]; 24 hours after allergen challenge, control 3.2): 2.0 ×10^4 cells/ml
- macrophages in BALF ([2]; 24 hours after allergen challenge, control 24.1): 17.8 ×10^4 cells/ml
- inhibition of eosinophils ([2]; at 24 hours): slight mean inhibition
- histological evaluation of airway inflammation [3]: reduced inflammatory cell cuffing of the vessels and bronchi, bronchus-associated lymphoid tissue hyperplasia, and epithelial sloughing; also recorded: scored lower
